# Measured values published in patent publication US20220160712A1, “METHODS OF TREATING RHEUMATOID ARTHRITIS AND FOR PREDICTING THE RESPONSE TO METHOTREXATE” (CHAN ZUCKERBERG BIOHUB, INC., priority 2020, published 2022).
# Assays:
# [1] = test system: complex human gut microbial community; test: Ex vivo incubation of RA patient stool samples with MTX; type: cell-based
# Experimental: All work was carried out in an anaerobic chamber. For each patient, stool was aliquoted into a pre-equilibrated cryovial, diluted in reduced PBS at 10 ml per 1 gram of stool, and vortexed to homogenize the sample. The sample was spun at ˜20 g for 1 minute on a mini-centrifuge to facilitate settling of sediment, and the sediment-free supernatant was then aliquoted into a new pre-equilibrated cryovial for evaluation of ex vivo growth. Growth was evaluated by inoculating liquid BHI with 1:50 dilution of this fecal slurry, with OD600 readings performed every 15 minutes for 48 hours with a 2-minute shake prior to each reading. Samples were treated with MTX 100 μg/ml or an equal volume of DMSO at time zero. Each patient's fecal slurry and treatment was evaluated in quadruplicate. Samples from four individuals (Donors 2, 4, 5, and 6) underwent 16S sequencing and analysis at 0 and 24 hours after of treatment with either DMSO or MTX treatments (4 replicates per treatment group) as described in the section titled “16S-seq of humanized mouse gut microbiota.”
# Reads that were not already demultiplexed were demultiplexed using QIIME (Caporaso et al., 2010) v1.9.1 (split_libraries_fastq.py). For all reads except NYU RA patient samples, QIIME2 (Bolyen et al., 2019)(v 2020.2) was used to trim reads, denoise the data, and create a feature table using the following commands: qiime cutadapt trim-paired, qiime dada2 denoise-paired, qiime feature-table filter-samples. Within QIIME2, taxonomy was assigned using the DADA2 et al., (2016), Nat Methods 13, 581-583) implementation of the RDP Naïve Bayesian classifier (Wang, Q., et al., (2007), Appl Environ Microbiol 73, 5261-5267) using the DADA2-formatted SILVA v128 training set; taxonomic assignments to the species level were chosen by exact match of the ASV to the reference database, and where multiple matches were present, all are reported. For figures and in the text, genus and species assignments are reported when available, and when neither was available, the family taxonomic assignment was included; a unique ASV identifier is also reported. This ASV identifier can be used to look up the full taxonomic assignment from kingdom to species and the associated sequence variant in Table S2B. A phylogenetic tree was constructed in QIIME2 using the command: phylogeny align-to-tree-mafft-fasttree. The QIIME2R package was used to import QIIME2 artefacts into R (https://github.com/jbisanz/qiime2R). For RA patient samples from NYU, reads were demultiplexed using QIIME (Caporaso et al., 2010) v1.9.1 (split_libraries_fastq.py) before denoising and processing with DADA2 (Callahan et al., 2016a) v1.1.5 under MRO v3.2.5. Taxonomy was assigned using the DADA2 implementation of the RDP classifier (Wang et al., 2007) using the DADA2-formatted SILVA v128 training set (benjjneb.github.io/dada2/assign.html). Low abundance taxa were filtered out […] as well as ASVs that could not be assigned taxonomy past the kingdom level. Diversity metrics were generated using Vegan (v2.5-6) and Phyloseq (v1.30.0) (McMurdie, P.J., and Holmes, S. (2013), PLoS One 8, e61217), with principal coordinate analysis (PCoA) or principal components analysis (PCA) carried out with Ape (v5.3) or Vegan, respectively. Analyses were carried out on either: (1) centered log2-ratio (clr) normalized taxonomic abundances calculated as Aclr=[log2(A1/ga), log2(A2/ga), . . . log2(An/ga),], where A is a vector of non-zero read counts and ga is the geometric mean of all values of A, or (2) relative abundance calculated as proportion of reads. ANOSIM and PERMANOVA were used to detect changes in community composition using counts from rarefied data and Bray-Curtis distances. DESeq2 (v1.26.0) (Love, M. I., et al., (2014), Genome Biol 15, 550) was used to determine differentially abundant taxa on raw count data. Some ASVs were reported to have log2 fold changes that were 20 or higher. […]
# [2] = Targeted LC-MS for MTX in RA donor stool samples used for fecal transplant; parameters: species or system human; conditions: limit of quantification 100 nM
# [3] = MTX 100 μg/ml, 24 hours, 4 ex vivo communities, padj<0.01
smiles,measurement,setting,value
"CN(Cc1cnc2nc(N)nc(N)c2n1)c1ccc(C(=O)N[C@@H](CCC(=O)O)C(=O)O)cc1 [MTX, methotrexate]",number of genera with significant shifts in abundance,[1]; MTX 100 μg/ml,17
same,Actinobacteria abundance,[1]; [3],increased
same,Bacteroidetes abundance,[1]; [3],decreased
same,lag phase,"[1]; MTX 100 μg/ml, 48 hours",significant delay
same,carrying capacity,"[1]; MTX 100 μg/ml, 48 hours, p=1.9×10-6, paired Student's t-test",significant decrease
same,richness (16S-seq of endpoint samples),"[1]; MTX 100 μg/ml, 4 patient samples",significant decrease
same,number of ASVs with significant shifts in abundance,"[1]; MTX 100 μg/ml, padj<0.01, DESeq",20
same,growth of complex microbial communities,"[1]; stool of 30 MTX-naive patients, MTX 100 μg/ml vs vehicle, 48 hours",significantly impaired
same,MTX in pre-MTX and post-MTX stool samples from RA donors,[2],not detected
